The values below come from article PMC8151276, “An Integrated Approach toward NanoBRET Tracers for Analysis of GPCR Ligand Engagement” (Molecules, 2021).

What all share (assay type): binding
One assay addresses T1, RXFP1 (Homo sapiens, UniProt Q9HBX9).
T1 construct: purchased Promega (in-house HiBiT-GPCR construct library, NanoBRET)
T1 sequence (Q9HBX9 1-757): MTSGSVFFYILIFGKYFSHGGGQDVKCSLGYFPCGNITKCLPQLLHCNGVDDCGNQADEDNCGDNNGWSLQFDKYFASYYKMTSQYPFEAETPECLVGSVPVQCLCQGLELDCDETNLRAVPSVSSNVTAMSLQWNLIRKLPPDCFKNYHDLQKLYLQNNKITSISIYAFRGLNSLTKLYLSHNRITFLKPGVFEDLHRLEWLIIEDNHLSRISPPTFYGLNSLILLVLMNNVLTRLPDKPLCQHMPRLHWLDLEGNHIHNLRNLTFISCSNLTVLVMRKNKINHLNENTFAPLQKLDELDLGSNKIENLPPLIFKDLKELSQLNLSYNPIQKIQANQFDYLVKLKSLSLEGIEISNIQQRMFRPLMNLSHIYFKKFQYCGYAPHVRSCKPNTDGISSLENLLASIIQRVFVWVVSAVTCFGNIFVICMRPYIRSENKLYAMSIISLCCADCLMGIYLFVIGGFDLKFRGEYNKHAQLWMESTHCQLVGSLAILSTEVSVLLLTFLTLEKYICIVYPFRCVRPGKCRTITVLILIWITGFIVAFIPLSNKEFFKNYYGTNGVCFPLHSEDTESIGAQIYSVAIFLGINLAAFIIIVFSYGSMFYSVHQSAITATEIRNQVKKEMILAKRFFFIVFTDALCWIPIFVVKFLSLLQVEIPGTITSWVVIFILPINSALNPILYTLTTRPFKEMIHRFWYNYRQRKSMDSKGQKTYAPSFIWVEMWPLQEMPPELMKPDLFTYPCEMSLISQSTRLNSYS
Put plainly: NanoBRET screen HiBiT-RXFP1 in HEK293. As to the method: (§1) Each tracer candidate was screened across the entire library of HiBiT-GPCR constructs using NanoBRET as the detection modality. As depicted in Figure 4A, the specificity of interactions was evaluated through decrease in BRET due to competitive displacement of a bound tracer by excess parental compound. Each tracer was analyzed for binding to each HiBiT-GPCR fusion in the absence and in the presence of competing parental compound. Briefly, HEK293 cells were transfected with HiBiT-GPCR constructs diluted into promoterless DNA to reduce expression and maximize translocation to the cell surface. Each tracer candidate was then screened at concentrations of 1 μM and 0.1 μM across cells expressing these fusions. Cells were treated for 1.5 h with tracer either alone or in the presence of 20 μM competing parental compound (i.e., control). BRET was measured upon addition of purified LgBiT and subsequent complementation with HiBiT genetically fused to a GPCR. The specificity of interactions was assessed through a decrease in BRET signal due to competitive displacement of the bound tracer. To further gauge the robustness of these interactions, the fold response over the control (i.e., BRETtracer/BRETcontrol) was calculated. We chose a 1.5-fold response, which translates to ≥7-fold signal over noise as the minimal threshold required to score an interaction as positive.
(§2) HiBiT-GPCR DNA constructs were diluted in 10 mM Tris pH 8 to a final concentration of 0.01 μg/μL, arrayed in 96-well plates and stored at −20 °C. For transfection, HEK293 cells were suspended in Opti-MEM (without phenol red) supplemented with 2% fetal bovine serum (Seradigm) and 100 units/mL penicillin–streptomycin (Gibco) at a final concentration of 220,000 cells/mL and dispensed into white 96-well plates at 90 μL/well. Subsequent transfections and screens were carried using an Agilent Bravo Automated Liquid Handling Platform. First, the 96-well HiBiT DNA arrays were diluted 25-fold in Opti-MEM (without serum or phenol red) to a final concentration of 0.0004 μg/μL and 20 μL of the diluted DNAs were transferred into new 96-well plates. Next, promoterless carrier DNA (1 μg/μL) was diluted 25-fold (0.04 μg/μL) and then dispensed into the diluted arrays at 20 μL/well. Following brief mixing, Viafect transfection reagent (Promega) diluted 16-fold into Opti-MEM was dispensed into the plates at 40 μL/well. After mixing by pipetting, plates were incubated for 10 min on the pipetting station deck. The DNA-transfection reagent complexes were then added to plates containing cells. To facilitate the screen, 10 μL of DNA-transfection reagent complexes were added in duplicates to the top 4 and bottom 4 rows, resulting in two identical 48-well arrays per plate. Plates with transfected cells were incubated for 18–20 h at 37 °C/5% CO2. A screen of each tracer across the entire library using two different concentrations requires duplicate plates of transfected cells. Depending on the number of tracers being screened, transfections can be scaled up using the same ratios. The next day, for each tracer, four 20× screening solutions in tracer dilution buffer (Promega) were prepared: two duplicates at final concentration of 20 μM and two duplicates at a final concentration of 2 μM. […] The four resulting solutions were diluted 4-fold in Opti-MEM without serum or phenol red to generate 5× solutions (5 µM and 0.5 µM tracer +/− 100 μM competing compound). To screen the library, a BioTek MultiFlo FX liquid dispenser was used to dispense 22.5 µL of tracer solution to the top 4 rows and 22.5 µL tracer + competing compound solution to the 4 bottom rows. Plates were briefly mixed on an orbital shaker and incubated for 1.5 h at room temperature. […] Plates were briefly mixed on an orbital shaker and incubated for 15 min to allow complementation.

The next assay has as its target T2, ADCYAP1R1 (Homo sapiens, UniProt P41586).
T2 construct: purchased Promega (in-house HiBiT-GPCR construct library, NanoBRET)
T2 sequence (P41586 21-468): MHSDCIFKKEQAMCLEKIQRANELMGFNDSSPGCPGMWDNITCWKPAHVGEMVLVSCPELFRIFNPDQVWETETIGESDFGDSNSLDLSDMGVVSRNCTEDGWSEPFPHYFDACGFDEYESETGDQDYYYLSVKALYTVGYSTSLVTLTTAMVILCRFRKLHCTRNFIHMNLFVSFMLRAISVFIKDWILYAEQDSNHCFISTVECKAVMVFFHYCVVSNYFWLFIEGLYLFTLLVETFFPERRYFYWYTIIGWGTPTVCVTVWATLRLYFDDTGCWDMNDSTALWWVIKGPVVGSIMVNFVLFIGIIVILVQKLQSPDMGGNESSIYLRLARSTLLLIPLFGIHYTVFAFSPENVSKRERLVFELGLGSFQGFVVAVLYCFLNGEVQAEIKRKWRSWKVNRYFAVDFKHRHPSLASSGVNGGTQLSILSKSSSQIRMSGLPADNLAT
Put plainly: NanoBRET screen HiBiT-ADCYAP1R1 in HEK293. How it is done: as §1, §2

In another assay the target is T3, GPR50 (Homo sapiens, UniProt Q13585).
T3 construct: purchased Promega (in-house HiBiT-GPCR construct library, NanoBRET)
T3 sequence (Q13585 whole entry): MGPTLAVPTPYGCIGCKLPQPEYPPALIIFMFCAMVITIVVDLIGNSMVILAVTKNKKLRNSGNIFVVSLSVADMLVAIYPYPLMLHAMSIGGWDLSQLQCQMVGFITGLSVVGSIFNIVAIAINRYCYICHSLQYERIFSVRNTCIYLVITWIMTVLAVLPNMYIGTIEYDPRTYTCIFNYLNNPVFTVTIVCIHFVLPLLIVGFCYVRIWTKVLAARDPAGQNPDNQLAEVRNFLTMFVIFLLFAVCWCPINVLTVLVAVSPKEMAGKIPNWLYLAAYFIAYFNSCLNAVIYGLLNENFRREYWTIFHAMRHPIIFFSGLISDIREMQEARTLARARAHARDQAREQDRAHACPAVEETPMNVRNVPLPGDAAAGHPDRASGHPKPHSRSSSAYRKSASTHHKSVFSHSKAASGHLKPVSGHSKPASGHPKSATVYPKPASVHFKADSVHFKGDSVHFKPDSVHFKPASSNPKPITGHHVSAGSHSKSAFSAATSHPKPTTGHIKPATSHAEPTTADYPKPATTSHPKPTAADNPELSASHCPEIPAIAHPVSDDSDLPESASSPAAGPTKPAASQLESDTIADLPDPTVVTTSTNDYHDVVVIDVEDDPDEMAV
Briefly: NanoBRET screen HiBiT-GPR50 in HEK293. As to the method:
as §1, §2

For `O=C(CCOCCOCCOCCOCCNC(=O)CCc1ccc2n1[B-](F)(F)[N+]1=C(c3ccc[nH]3)C=CC1=C2)NCCCN1CCN(C2=Nc3ccccc3Oc3ccc(Cl)cc32)CC1` [Loxapine-a-2-NB590], the “NanoBRET Fold Response” value is recorded as 0.94 at RXFP1 (RXFP1, tracer 0.1μM); 0.80 at RXFP1 (RXFP1, tracer 1μM); 1.03 on ADCYAP1R1 (ADCYAP1R1, tracer 0.1μM); 1.20 on ADCYAP1R1 (ADCYAP1R1, tracer 1μM); 0.74 at GPR50 (GPR50, tracer 0.1μM); 1.09 at GPR50 (GPR50, tracer 1μM).

Regarding `CCCn1c(=O)c2[nH]c(-c3ccc(OCC(=O)NCCNC(=O)CCOCCNC(=O)c4ccc(CNC(=O)CCc5ccc6n5[B-](F)(F)[N+]5=C(c7ccc[nH]7)C=CC5=C6)cc4)cc3)nc2n(CCC)c1=O` [XAC-3-NB590], the “NanoBRET Fold Response” value at RXFP1 (RXFP1, tracer 0.1μM) turned out to be 1.04; on RXFP1 (RXFP1, tracer 1μM) it was 0.93; on ADCYAP1R1 (ADCYAP1R1, tracer 0.1μM), 0.98; on ADCYAP1R1 (ADCYAP1R1, tracer 1μM), 0.97; on GPR50 (GPR50, tracer 0.1μM), 1.05; on GPR50 (GPR50, tracer 1μM), 1.04.

With `COc1ccccc1N1CCN(CCCCN2C(=O)c3ccc(CNC(=O)CCOCCOCCOCCOCCNC(=O)CCc4ccc5n4[B-](F)(F)[N+]4=C(c6ccc[nH]6)C=CC4=C5)cc3C2=O)CC1` [NAN-190-2-NB590], the “NanoBRET Fold Response” value is given as 0.78 at RXFP1 (RXFP1, tracer 0.1μM); 0.92 on RXFP1 (RXFP1, tracer 1μM); 1.08 on ADCYAP1R1 (ADCYAP1R1, tracer 0.1μM); 1.04 at ADCYAP1R1 (ADCYAP1R1, tracer 1μM); 1.00 on GPR50 (GPR50, tracer 0.1μM).

Regarding `O=C(CCc1ccc2n1[B-](F)(F)[N+]1=C(c3ccc[nH]3)C=CC1=C2)NCc1ccc(C(=O)NCCOCCOCCNCC(O)COc2cccc3ccccc23)cc1` (stereo not drawn) [Propranolol-3-NB590], the “NanoBRET Fold Response” value at RXFP1 (RXFP1, 0.1μM) is recorded as 0.90; at RXFP1 (RXFP1, 1μM), 0.90; on ADCYAP1R1 (ADCYAP1R1, 0.1μM), 1.00; on ADCYAP1R1 (ADCYAP1R1, 1μM), 0.97; at GPR50 (GPR50, 0.1μM), 1.01; on GPR50 (GPR50, 1μM) it was 1.05.

For `COc1ccccc1N1CCN(CCCCN2C(=O)c3ccc(CNC(=O)CCOCCNC(=O)c4ccc(CNC(=O)CCc5ccc6n5[B-](F)(F)[N+]5=C(c7ccc[nH]7)C=CC5=C6)cc4)cc3C2=O)CC1` [NAN-190-3-NB590], the “NanoBRET Fold Response” value at RXFP1 (RXFP1, tracer 0.1μM) is 0.88; at RXFP1 (RXFP1, tracer 1μM) it was 0.90; at ADCYAP1R1 (ADCYAP1R1, tracer 0.1μM), 1.25; at ADCYAP1R1 (ADCYAP1R1, tracer 1μM), 1.00; on GPR50 (GPR50, tracer 0.1μM) it was 0.97; at GPR50 (GPR50, tracer 1μM), 0.89.

For the compound `O=C(CCc1ccc2n1[B-](F)(F)[N+]1=C(c3ccc[nH]3)C=CC1=C2)NCc1ccc(C(=O)NCCOCCC(=O)N[C@@H]2CC[C@@]3(O)[C@H]4Cc5ccc(O)c6c5[C@@]3(CCN4CC3CC3)[C@H]2O6)cc1` [Naltrexone-3-NB590], the “NanoBRET Fold Response” value was 1.31 on RXFP1 (RXFP1, tracer 0.1μM); 1.24 on RXFP1 (RXFP1, tracer 1μM); 0.88 at ADCYAP1R1 (ADCYAP1R1, tracer 0.1μM); 0.98 at ADCYAP1R1 (ADCYAP1R1, tracer 1μM); 0.94 on GPR50 (GPR50, tracer 0.1μM); 0.97 at GPR50 (GPR50, tracer 1μM).

`CCOC(=O)c1cc(C#N)c(N2CCC(C(=O)NS(=O)(=O)Cc3ccccc3/C=C/C(=O)NCCNC(=O)CCc3ccc4n3[B-](F)(F)[N+]3=C(c5ccc[nH]5)C=CC3=C4)CC2)nc1C` [AZD1283-1-NB590]: the “NanoBRET Fold Response” value is reported as 1.16 on RXFP1 (RXFP1, 0.1μM); 0.49 on RXFP1 (RXFP1, 1μM); 0.93 at ADCYAP1R1 (ADCYAP1R1, 0.1μM); 0.96 on ADCYAP1R1 (ADCYAP1R1, 1μM); 0.97 at GPR50 (GPR50, 0.1μM); 0.97 on GPR50 (GPR50, 1μM).

On to `COc1ccc2[nH]c(-c3ccc(CNC(=O)CCOCCOCCOCCOCCNC(=O)CCc4ccc5n4[B-](F)(F)[N+]4=C(c6ccc[nH]6)C=CC4=C5)cc3)c(CCNC(C)=O)c2n1` [AzomelatoninICO9-2-NB590], for which the “NanoBRET Fold Response” value at RXFP1 (0.1μM tracer) is on record as 1.23; on RXFP1 (1μM tracer), 1.24; on ADCYAP1R1 (0.1μM tracer) it was 1.08; on ADCYAP1R1 (1μM tracer) it was 0.91; on GPR50 (0.1μM tracer), 0.96; on GPR50 (1μM tracer), 1.01.

On to `CC(C)N(CC[C@H](c1ccccc1)c1cc(CCNC(=O)CCOCCOCCOCCOCCNC(=O)CCc2ccc3n2[B-](F)(F)[N+]2=C(c4ccc[nH]4)C=CC2=C3)ccc1O)C(C)C` [Tolterodine-2-NB590], for which the “NanoBRET Fold Response” value worked out at 1.11 at RXFP1 (RXFP1, tracer 0.1μM); 0.81 on RXFP1 (RXFP1, tracer 1μM); 0.68 on ADCYAP1R1 (ADCYAP1R1, tracer 0.1μM); 0.93 at ADCYAP1R1 (ADCYAP1R1, tracer 1μM); 1.12 at GPR50 (GPR50, tracer 0.1μM); 0.93 on GPR50 (GPR50, tracer 1μM).

`CN1CCN(C2=Nc3cc(Cl)ccc3N(CC(=O)NCCOCCOCCOCCOCCNC(=O)CCc3ccc4n3[B-](F)(F)[N+]3=C(c5ccc[nH]5)C=CC3=C4)c3ccccc32)CC1` [Clozapine-c-2-NB590]: the “NanoBRET Fold Response” value on RXFP1 (RXFP1, 0.1μM tracer) is reported as 0.85; on RXFP1 (RXFP1, 1μM tracer), 1.27; at ADCYAP1R1 (ADCYAP1R1, 0.1μM tracer), 0.97; at ADCYAP1R1 (ADCYAP1R1, 1μM tracer) it was 1.07.

On to `N#CN=C(NCCCOc1cccc(CN2CCCCC2)c1)NCCNC(=O)CCOCCOCCOCCOCCNC(=O)CCc1ccc2n1[B-](F)(F)[N+]1=C(c3ccc[nH]3)C=CC1=C2` [Aminopotentidine-2-NB590], for which the “NanoBRET Fold Response” value on RXFP1 (RXFP1, tracer 0.1μM) amounted to 0.79; on RXFP1 (RXFP1, tracer 1μM) it was 1.28; on ADCYAP1R1 (ADCYAP1R1, tracer 0.1μM), 1.00; on ADCYAP1R1 (ADCYAP1R1, tracer 1μM), 1.01; at GPR50 (GPR50, tracer 0.1μM), 1.02; on GPR50 (GPR50, tracer 1μM), 0.97.
